Experimental data from paper PMC10493609 (Frontiers in Immunology, 2023).

Target: T1, Galectin-3 (Gal-3) (Homo sapiens, UniProt P17931)
T1 construct: gene LGALS3; Human recombinant Gal-3
Experiment: SPR kinetic analysis (Biacore)
Assay type: binding

T1 sequence (P17931 2-250): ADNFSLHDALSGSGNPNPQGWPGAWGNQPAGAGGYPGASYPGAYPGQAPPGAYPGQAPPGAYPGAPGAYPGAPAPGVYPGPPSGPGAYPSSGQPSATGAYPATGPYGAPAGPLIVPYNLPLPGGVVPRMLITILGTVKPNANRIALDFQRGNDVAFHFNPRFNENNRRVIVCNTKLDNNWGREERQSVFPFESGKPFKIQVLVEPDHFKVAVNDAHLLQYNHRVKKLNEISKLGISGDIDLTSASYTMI

GB1211
Kd: 23.3 nM
